Source: article PMC10784468 (Nature Communications, 2024)
Positions of bridges follow the written chain, without caps; N, C: chain ends. Residues, ends and D or L forms follow the SMILES beside them. *: point of attachment. X1 = O=C(O)c1ccc(-c2c3nc(c(-c4ccc(C(=O)O)cc4)c4ccc([nH]4)c(-c4ccc(C(=O)*)cc4)c4nc(c(-c5ccc(C(=O)O)cc5)c5ccc2[nH]5)C=C4)C=C3)cc1; X2 = O=C(O)C/C(=C/C(=O)*)C(=O)O

How the values were obtained:
ζ-potential in PBS = type: physicochemical
Procedure: Supplementary Fig. 12. ζ-potential change of Gi-F-CAA (40 μM) in PBS (0.01 M, pH 7.4 or 6.5) (n=3
experimental repeats). Experiment was independently repeated three times with similar results. Values are
(1 picture or pasted object on this page, not shown here)
Supplementary Fig. 13. ζ-potential of NGi-F-CAA, Gi-F and Gi-F-SA (pH 7.4) (40 μM) in PBS (n=3

EJ xenograft tumor = assay: Penetration assay in tumor frozen sections (Cy labeled)
Procedure: Firstly, EJ xenograft mice were administrated with Cy labeled Gi-F (8 mg/kg in 100 μL PBS) and Cy labeled Gi-F-CAA (8 mg/kg in 100 μL PBS) by intravenous injection. Afterward, EJ tumor tissues were entirely resected and protected from light. Subsequently, the tumor tissues were fixed with optimum cutting temperature (OCT) compound for 12 h at −20 °C avoiding light. Finally, the fixed tumor tissues were cut into sections and immediately observed with UltraVIEW VoX.

EJ cells = assay: Cytotoxicity assay (CCK-8) on EJ cells; conditions: for IC50: pH 7.4
Procedure: Initially, EJ cells were seeded into 96 well plates at a density of 5 × 10^3 per well and incubated in a CO2 incubator overnight at 37 °C. Subsequently, Gi-F (pH = 7.4), Gi-F-SA (pH = 7.4), NGi-F-CAA (pH = 7.4), NGi-F-CAA (pH = 6.5), Gi-F-CAA (pH = 7.4) and Gi-F-CAA (pH = 6.5) at different concentrations (1, 2, 4, 8, 16, 32, 64, 128 and 256 μM) was added to the cells and further incubated for 48 h. Finally, the cell viability rate was calculated by (Sample wells-Blank wells)/(Control wells-Blank wells) × 100%.

EJ xenograft tumors = assay: In vivo antitumor evaluation in EJ xenograft model (tumor volume, tumor weight, body weight); conditions: 8 mg/kg i.v.; for mean tumor volume at 18 days post injection: six injections at 2-days intervals, n = 6; for Tumor weight: six injections, 18 days
Procedure: Female BALB/c nude mice (~8 weeks, 18 g) were subcutaneously inoculated with 5 × 10^6 EJ cells resuspended in Matrigel. When the tumor size reached about 100 mm^3, EJ tumor-bearing mice were randomly divided into four groups and administrated with PBS, Gi-F (8 mg/kg in 100 μL PBS), Gi-F-SA (8 mg/kg in 100 μL PBS) and Gi-F-CAA (8 mg/kg in 100 μL PBS) by intravenous injection at 2-days intervals for six times. Individual tumor volume and bodyweight of mouse after different treatment was collected at 2-days intervals for analysis. Mice were killed at 18 days post treatment unless endpoints were exceeded. Moreover, tumors from all groups were harvested under euthanasia and weighed for analysis at the end of treatment.

EJ tumor tissues [1] = assay: Tumor GSH content detection; type: in vivo, BALB/c nude mice; conditions: for Relative content of GSH: tumor
Procedure: EJ tumor tissues were collected under euthanasia at the end of treatment and washed with PBS for 3 times. Afterwards, the tumor lysates were collected by centrifugation at 8000 rpm for 10 min at 4 °C after lysed with Frozen Type Tissuelyser. Finally, the GSH contents were measured with a GSH Assay Kit based on the manufacturer’s instructions.

EJ tumor tissues [2] = assay: Tumor MDA content detection; type: in vivo, BALB/c nude mice; conditions: for Relative content of MDA: tumor
Procedure: EJ tumor tissues were collected under euthanasia at the end of treatment and washed with PBS for 3 times. Afterwards, the tumor lysates were collected by centrifugation at 8000 g for 10 min at 4 °C after lysed with Frozen Type Tissuelyser. Finally, the MDA contents were measured by thiobarbituric acid (TBA) reaction with a Malondialdehyde (MDA) Assay Kit (Solarbio Science & Technology Co., Ltd., China, BC0025) based on the manufacturer’s instructions.

GPX4 = target: T1, GPX4 (Homo sapiens, UniProt P36969); assay: Tumor GPX4 activity detection; type: in vivo, BALB/c nude mice; set-up: from tissue; host or cells: EJ xenograft tumour tissue from BALB/c nude mice
T1 sequence (P36969 1-197): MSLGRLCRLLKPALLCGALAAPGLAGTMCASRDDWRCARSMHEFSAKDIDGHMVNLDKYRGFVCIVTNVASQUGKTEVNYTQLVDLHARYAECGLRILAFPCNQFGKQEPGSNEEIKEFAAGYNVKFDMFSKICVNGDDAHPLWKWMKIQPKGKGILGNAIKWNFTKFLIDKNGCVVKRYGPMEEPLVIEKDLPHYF
Procedure: EJ tumor tissues were collected under euthanasia at the end of treatment and washed with PBS for 3 times. Afterwards, the tumor lysates were collected by centrifugation at 5000 rpm for 10 min at 4 °C after lysed by freeze-thaw treatment. Finally, the GPX4 activity were measured with a GPX Assay Kit based on the manufacturer’s instructions.

[3] = EJ tumor tissues, 8 mg/kg i.v., versus PBS, Gi-F and Gi-F-SA
[4] = 40 μM in PBS, pH 7.4, mean of n = 3

## CC(C)C[C@H](NC(=O)c1ccc(-c2c3nc(c(-c4ccc(C(=O)O)cc4)c4ccc([nH]4)c(-c4ccc(C(=O)O)cc4)c4nc(c(-c5ccc(C(=O)O)cc5)c5ccc2[nH]5)C=C4)C=C3)cc1)C(=O)N[C@@H](CCCCNC(=O)/C=C(/CC(=O)O)C(=O)O)C(=O)N[C@@H](CC(C)C)C(=O)N[C@@H](CCCCN)C(=O)N[C@@H](CC(C)C)C(=O)N[C@@H](CCCCNC(=O)/C=C(/CC(=O)O)C(=O)O)C(=O)NCC(=O)N[C@@H](C)C(=O)N[C@H]1CSSC[C@@H](C(=O)N2CCC[C@H]2C(=O)N[C@H](C(=O)O)C(C)C)NC(=O)[C@@H]2CCCN2C(=O)[C@H](Cc2ccc(O)cc2)NC(=O)[C@H](CC(C)C)NC(=O)[C@@H]2CCCN2C(=O)[C@H](CC(C)C)NC(=O)[C@H](Cc2c[nH]c3ccccc23)NC(=O)[C@H](CC(N)=O)NC1=O [Gi-F-CAA] (X1-LK(X2)LKLK(X2)GACNWLPLYPCPV-OH; disulfide 9-17; C-terminus assumed)
ζ-potential in PBS; 40 μM in PBS 0.01 M, pH 6.5
  ζ-potential change after incubation at pH 6.5: increased considerably
ζ-potential in PBS; pH 6.5, 0 min, mean
  Zeta potential (mV): -25.5 mV
ζ-potential in PBS; pH 6.5, 10 min, mean
  Zeta potential (mV): -19.8 mV
ζ-potential in PBS; pH 6.5, 30 min, mean
  Zeta potential (mV): -12.4 mV
ζ-potential in PBS; pH 6.5, 60 min, mean
  Zeta potential (mV): -7.6 mV
ζ-potential in PBS; pH 6.5, 90 min, mean
  Zeta potential (mV): -6.4 mV
ζ-potential in PBS; pH 6.5, 120 min, mean
  Zeta potential (mV): -5.5 mV
ζ-potential in PBS; pH 7.4, 0 min, mean
  Zeta potential (mV): -27.3 mV
ζ-potential in PBS; pH 7.4, 10 min, mean
  Zeta potential (mV): -25.6 mV
ζ-potential in PBS; pH 7.4, 30 min, mean
  Zeta potential (mV): -24.4 mV
ζ-potential in PBS; pH 7.4, 60 min, mean
  Zeta potential (mV): -23.4 mV
ζ-potential in PBS; pH 7.4, 90 min, mean
  Zeta potential (mV): -22.6 mV
ζ-potential in PBS; pH 7.4, 120 min, mean
  Zeta potential (mV): -22.5 mV
EJ xenograft tumor; EJ xenograft mice, Cy-labeled, 8 mg/kg i.v.
  tumor penetration, fluorescence distribution in tumor sections: distributed all over the tumor tissues
EJ cells; EJ cells, pH 6.5, 48 h, Fer-1, Supplementary Fig. 26
  cytotoxicity with ferroptosis inhibitor Fer-1: successfully rescued by Fer-1
EJ xenograft tumors
  mean tumor volume at 18 days post injection: 552 mm^3
EJ xenograft tumors; mice 1
  Tumor weight: 0.398 g
EJ xenograft tumors; mice 2
  Tumor weight: 0.419 g
EJ xenograft tumors; mice 3
  Tumor weight: 0.47 g
EJ xenograft tumors; mice 4
  Tumor weight: 0.318 g
EJ xenograft tumors; mice 5
  Tumor weight: 0.548 g
EJ xenograft tumors; mice 6
  Tumor weight: 0.402 g
EJ tumor tissues [1]; [3]
  GSH levels of tumor tissues: substantial reduction of GSH levels
EJ tumor tissues [1]; mice 1
  Relative content of GSH: 0.248
EJ tumor tissues [1]; mice 2
  Relative content of GSH: 0.322
EJ tumor tissues [1]; mice 3
  Relative content of GSH: 0.359
EJ tumor tissues [1]; mice 4
  Relative content of GSH: 0.285
EJ tumor tissues [1]; mice 5
  Relative content of GSH: 0.331
EJ tumor tissues [1]; mice 6
  Relative content of GSH: 0.276
EJ tumor tissues [2]; [3]
  LPO levels of tumor tissues: elevation
EJ tumor tissues [2]; mice 1
  Relative content of MDA: 4.75
EJ tumor tissues [2]; mice 2
  Relative content of MDA: 4.25
EJ tumor tissues [2]; mice 3
  Relative content of MDA: 4.65
EJ tumor tissues [2]; mice 4
  Relative content of MDA: 5.15
EJ tumor tissues [2]; mice 5
  Relative content of MDA: 4.25
EJ tumor tissues [2]; mice 6
  Relative content of MDA: 4.75
GPX4; mice 1
  Relative activity of GPX4: 0.21
GPX4; mice 2
  Relative activity of GPX4: 0.22
GPX4; mice 3
  Relative activity of GPX4: 0.2
GPX4; mice 4
  Relative activity of GPX4: 0.21
GPX4; mice 5
  Relative activity of GPX4: 0.22
GPX4; mice 6
  Relative activity of GPX4: 0.2

## FeTCPP-LKLKLK(SA)GACNWLPLYPCPV (disulfide) [Gi-F-SA, control conjugate decorated with non-sensitive succinic anhydride (SA) moieties]
ζ-potential in PBS; [4]
  Zeta potential (mV): -21.4 mV
EJ xenograft tumor; mouse, in vivo, iv, 8 mg/kg
  tumor penetration, fluorescence distribution in tumor sections: penetrate into the tumor interior, while in a week fluorescence intensity
EJ cells
  IC50: 40 µM
EJ xenograft tumors
  mean tumor volume at 18 days post injection: 1204 mm^3
EJ xenograft tumors; mice 1
  Tumor weight: 1.819 g
EJ xenograft tumors; mice 2
  Tumor weight: 1.454 g
EJ xenograft tumors; mice 3
  Tumor weight: 1.391 g
EJ xenograft tumors; mice 4
  Tumor weight: 1.595 g
EJ xenograft tumors; mice 5
  Tumor weight: 1.425 g
EJ xenograft tumors; mice 6
  Tumor weight: 1.689 g
EJ tumor tissues [1]; mice 1
  Relative content of GSH: 0.8
EJ tumor tissues [1]; mice 2
  Relative content of GSH: 0.832
EJ tumor tissues [1]; mice 3
  Relative content of GSH: 0.874
EJ tumor tissues [1]; mice 4
  Relative content of GSH: 0.837
EJ tumor tissues [1]; mice 5
  Relative content of GSH: 0.887
EJ tumor tissues [1]; mice 6
  Relative content of GSH: 0.74
EJ tumor tissues [2]; mice 1
  Relative content of MDA: 1.35
EJ tumor tissues [2]; mice 2
  Relative content of MDA: 1.45
EJ tumor tissues [2]; mice 3
  Relative content of MDA: 1.2
EJ tumor tissues [2]; mice 4
  Relative content of MDA: 1.75
EJ tumor tissues [2]; mice 5
  Relative content of MDA: 1.45
EJ tumor tissues [2]; mice 6
  Relative content of MDA: 1.3
GPX4; mice 1
  Relative activity of GPX4: 0.79
GPX4; mice 2
  Relative activity of GPX4: 0.8
GPX4; mice 3
  Relative activity of GPX4: 0.76
GPX4; mice 4
  Relative activity of GPX4: 0.79
GPX4; mice 5
  Relative activity of GPX4: 0.8
GPX4; mice 6
  Relative activity of GPX4: 0.76

## FeTCPP-LKLKLKGACNWLPLYPCPV (disulfide) [Gi-F]
ζ-potential in PBS; [4]
  Zeta potential (mV): -8.4 mV
EJ xenograft tumor; mouse, in vivo, iv, 8 mg/kg
  tumor penetration, fluorescence distribution in tumor sections: only distributed around the periphery of tumor tissues
EJ cells
  IC50: 11.3 µM
EJ xenograft tumors
  mean tumor volume at 18 days post injection: 1426 mm^3
EJ xenograft tumors; mice 1
  Tumor weight: 1.433 g
EJ xenograft tumors; mice 2
  Tumor weight: 1.25 g
EJ xenograft tumors; mice 3
  Tumor weight: 1.087 g
EJ xenograft tumors; mice 4
  Tumor weight: 1.055 g
EJ xenograft tumors; mice 5
  Tumor weight: 0.939 g
EJ xenograft tumors; mice 6
  Tumor weight: 1.259 g
EJ tumor tissues [1]; mice 1
  Relative content of GSH: 0.74
EJ tumor tissues [1]; mice 2
  Relative content of GSH: 0.713
EJ tumor tissues [1]; mice 3
  Relative content of GSH: 0.713
EJ tumor tissues [1]; mice 4
  Relative content of GSH: 0.681
EJ tumor tissues [1]; mice 5
  Relative content of GSH: 0.676
EJ tumor tissues [1]; mice 6
  Relative content of GSH: 0.763
EJ tumor tissues [2]; mice 1
  Relative content of MDA: 2.1
EJ tumor tissues [2]; mice 2
  Relative content of MDA: 2.6
EJ tumor tissues [2]; mice 3
  Relative content of MDA: 2.35
EJ tumor tissues [2]; mice 4
  Relative content of MDA: 2.5
EJ tumor tissues [2]; mice 5
  Relative content of MDA: 2.3
EJ tumor tissues [2]; mice 6
  Relative content of MDA: 2.45
GPX4; mice 1
  Relative activity of GPX4: 0.57
GPX4; mice 2
  Relative activity of GPX4: 0.52
GPX4; mice 3
  Relative activity of GPX4: 0.57
GPX4; mice 4
  Relative activity of GPX4: 0.57
GPX4; mice 5
  Relative activity of GPX4: 0.52
GPX4; mice 6
  Relative activity of GPX4: 0.57
